Laboratory results taken from PubChem BioAssay AID328 (DTP/NCI, 2004).
Where “and” joins values, the source holds several entries; their conditions need not be identical. Identical values can stand only once. Inconclusive results and toxic doses are left out. The calls were made as follows: active = survival T/C of 150% or more; inactive = T/C below 125% in these data.

Test system: BDF1 mice, P388 leukemia ip, median survival T/C
Experiment: NCI In Vivo Anticancer Drug Screen. Data for tumor model P388 Leukemia (intraperitoneal) in B6D2F1 (BDF1) mice
Settings: endpoint: median survival time, higher = longer survival
Outline: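 In tumour-bearing mice, survival after compound treatment is set against the vehicle group and given as a quotient.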

[1] = dose: 25.0 mg/kg/injection, schedule: Q04DX003 (ip), vehicle: Klucel (hydroxypropylcellulose) (HPC)
[2] = dose: 50.0 mg/kg/injection, schedule: Q04DX003 (ip), vehicle: Klucel (hydroxypropylcellulose) (HPC)
[3] = dose: 100.0 mg/kg/injection, schedule: Q04DX003 (ip), vehicle: Klucel (hydroxypropylcellulose) (HPC)
[4] = dose: 200.0 mg/kg/injection, schedule: Q04DX003 (ip), vehicle: Klucel (hydroxypropylcellulose) (HPC)
[5] = dose: 400.0 mg/kg/injection, schedule: Q01DX009 (ip), vehicle: Klucel (hydroxypropylcellulose) (HPC)
[6] = dose: 400.0 mg/kg/injection, schedule: Q04DX003 (ip), vehicle: Klucel (hydroxypropylcellulose) (HPC)
[7] = dose: 12.5 mg/kg/injection, schedule: Q04DX003 (ip), vehicle: saline with Tween-80
[8] = dose: 25.0 mg/kg/injection, schedule: Q04DX003 (ip), vehicle: saline with Tween-80
[9] = dose: 50.0 mg/kg/injection, schedule: Q01DX009 (ip), vehicle: saline with Tween-80
[10] = dose: 100.0 mg/kg/injection, schedule: Q01DX009 (ip), vehicle: saline with Tween-80
[11] = dose: 200.0 mg/kg/injection, schedule: Q01DX009 (ip), vehicle: saline with Tween-80
[12] = dose: 50.0 mg/kg/injection, schedule: Q04DX003 (ip), vehicle: saline with Tween-80
[13] = dose: 25.0 mg/kg/injection, schedule: Q01DX009 (ip), vehicle: saline with Tween-80
[14] = dose: 400.0 mg/kg/injection, schedule: Q01DX009 (ip), vehicle: saline with Tween-80
[15] = dose: 100.0 mg/kg/injection, schedule: Q01DX009 (ip), vehicle: Klucel (hydroxypropylcellulose) (HPC)
[16] = dose: 200.0 mg/kg/injection, schedule: Q01DX009 (ip), vehicle: Klucel (hydroxypropylcellulose) (HPC)

Measured: T/C

O=NN(CCCl)C(=O)Nc1ccc(NC(=O)N(CCCl)N=O)cc1
active: dose: 0.25 mg/kg/injection, schedule: Q01DX009 (ip), vehicle: Klucel (hydroxypropylcellulose) (HPC) 177 % of control | dose: 0.25 mg/kg/injection, schedule: Q04DX003 (ip), vehicle: Klucel (hydroxypropylcellulose) (HPC) 150 % of control | dose: 0.5 mg/kg/injection, schedule: Q01DX009 (ip), vehicle: Klucel (hydroxypropylcellulose) (HPC) 222 % of control | dose: 0.5 mg/kg/injection, schedule: Q04DX003 (ip), vehicle: Klucel (hydroxypropylcellulose) (HPC) 154 % of control | dose: 1.0 mg/kg/injection, schedule: Q04DX003 (ip), vehicle: Klucel (hydroxypropylcellulose) (HPC) 204 % of control | dose: 1.5 mg/kg/injection, schedule: Q01DX009 (ip), vehicle: Klucel (hydroxypropylcellulose) (HPC) 254 % of control | dose: 1.6 mg/kg/injection, schedule: Q04DX003 (ip), vehicle: Klucel (hydroxypropylcellulose) (HPC) 152 % of control | dose: 2.0 mg/kg/injection, schedule: Q04DX003 (ip), vehicle: Klucel (hydroxypropylcellulose) (HPC) 186 % of control | dose: 2.5 mg/kg/injection, schedule: Q04DX003 (ip), vehicle: Klucel (hydroxypropylcellulose) (HPC) 160 % of control and 175 % of control | dose: 3.0 mg/kg/injection, schedule: Q01DX009 (ip), vehicle: Klucel (hydroxypropylcellulose) (HPC) 231 % of control | dose: 3.0 mg/kg/injection, schedule: Q04DX003 (ip), vehicle: Klucel (hydroxypropylcellulose) (HPC) 186 % of control | dose: 4.0 mg/kg/injection, schedule: Q04DX003 (ip), vehicle: Klucel (hydroxypropylcellulose) (HPC) 187 % of control | dose: 6.0 mg/kg/injection, schedule: Q01DX009 (ip), vehicle: Klucel (hydroxypropylcellulose) (HPC) 272 % of control | dose: 6.0 mg/kg/injection, schedule: Q04DX003 (ip), vehicle: Klucel (hydroxypropylcellulose) (HPC) 227 % of control and 187 % of control and 213 % of control | dose: 9.0 mg/kg/injection, schedule: Q04DX003 (ip), vehicle: Klucel (hydroxypropylcellulose) (HPC) 190 % of control | dose: 12.0 mg/kg/injection, schedule: Q04DX003 (ip), vehicle: Klucel (hydroxypropylcellulose) (HPC) 213 % of control | dose: 12.5 mg/kg/injection, schedule: Q01DX009 (ip), vehicle: Klucel (hydroxypropylcellulose) (HPC) 300 % of control | dose: 13.0 mg/kg/injection, schedule: Q04DX003 (ip), vehicle: Klucel (hydroxypropylcellulose) (HPC) 231 % of control and 259 % of control | dose: 20.0 mg/kg/injection, schedule: Q04DX003 (ip), vehicle: Klucel (hydroxypropylcellulose) (HPC) 245 % of control | dose: 25.0 mg/kg/injection, schedule: Q01DX009 (ip), vehicle: Klucel (hydroxypropylcellulose) (HPC) 300 % of control | [1] 272 % of control | dose: 30.0 mg/kg/injection, schedule: Q04DX003 (ip), vehicle: Klucel (hydroxypropylcellulose) (HPC) 250 % of control and 272 % of control | dose: 44.0 mg/kg/injection, schedule: Q04DX003 (ip), vehicle: Klucel (hydroxypropylcellulose) (HPC) 250 % of control | dose: 50.0 mg/kg/injection, schedule: Q01DX009 (ip), vehicle: Klucel (hydroxypropylcellulose) (HPC) 210 % of control | [2] 254 % of control | dose: 66.0 mg/kg/injection, schedule: Q04DX003 (ip), vehicle: Klucel (hydroxypropylcellulose) (HPC) 241 % of control and 250 % of control | [3] 233 % of control and 254 % of control and 260 % of control | dose: 150.0 mg/kg/injection, schedule: Q04DX003 (ip), vehicle: Klucel (hydroxypropylcellulose) (HPC) 175 % of control | [4] 260 % of control and 272 % of control | [6] 234 % of control and 177 % of control | dose: 600.0 mg/kg/injection, schedule: Q04DX003 (ip), vehicle: Klucel (hydroxypropylcellulose) (HPC) 272 % of control
inactive: dose: 0.03 mg/kg/injection, schedule: Q04DX003 (ip), vehicle: Klucel (hydroxypropylcellulose) (HPC) 100 % of control | dose: 0.06 mg/kg/injection, schedule: Q04DX003 (ip), vehicle: Klucel (hydroxypropylcellulose) (HPC) 108 % of control | dose: 0.12 mg/kg/injection, schedule: Q01DX009 (ip), vehicle: Klucel (hydroxypropylcellulose) (HPC) 111 % of control | dose: 0.12 mg/kg/injection, schedule: Q04DX003 (ip), vehicle: Klucel (hydroxypropylcellulose) (HPC) 108 % of control | dose: 0.6 mg/kg/injection, schedule: Q04DX003 (ip), vehicle: Klucel (hydroxypropylcellulose) (HPC) 117 % of control | dose: 1.0 mg/kg/injection, schedule: Q01DX009 (ip), vehicle: Klucel (hydroxypropylcellulose) (HPC) 94 % of control | dose: 150.0 mg/kg/injection, schedule: Q01DX009 (ip), vehicle: Klucel (hydroxypropylcellulose) (HPC) 115 % of control | [5] 115 % of control

CC(/C=C/C1(C)C(C)CCC(=O)C1C)=C\Cc1c(O)c(Cl)c(C)c(C=O)c1O (centres undefined)
inactive: [7] 92 % of control | [8] 90 % of control

CCCCCCC(=O)/C=C/c1cccc(OC)c1
inactive: [9] 90 % of control | [10] 105 % of control | [11] 105 % of control

CC1CCC(NC2=NCCO2)C(C)C1 (centres undefined)
inactive: [7] 95 % of control | [8] 100 % of control | [12] 100 % of control

COc1ccccc1C(=O)C(O)c1ccccc1OC (centres undefined)
inactive: [3] 95 % of control | [4] 104 % of control | [6] 108 % of control

O=[N+]([O-])c1ccc(Oc2cc(Cl)c(Cl)cc2Cl)c([N+](=O)[O-])c1
inactive: dose: 200.0 mg/kg/injection, schedule: Q01DX009 (ip), vehicle: saline sonified 90 % of control | dose: 400.0 mg/kg/injection, schedule: Q01DX009 (ip), vehicle: saline sonified 90 % of control

NC(=O)N/N=C/c1cccs1
inactive: [13] 97 % of control | [9] 104 % of control

CC1(C)Cc2cc3cc(Cl)ccc3nc2-c2ccccc21
inactive: dose: 100.0 mg/kg/injection, schedule: Q01DX009 (ip), vehicle: saline 110 % of control | [3] 110 % of control | dose: 200.0 mg/kg/injection, schedule: Q01DX009 (ip), vehicle: saline 105 % of control | [4] 115 % of control | dose: 400.0 mg/kg/injection, schedule: Q01DX009 (ip), vehicle: saline 110 % of control | [6] 110 % of control

COc1ccc(OC)c2c1C(=O)c1ccccc1C2=O
inactive: [13] 100 % of control | [9] 105 % of control | [10] 90 % of control | [11] 106 % of control | [14] 103 % of control

Oc1ccc(C(O)(c2ccccc2)c2ccc(O)c3ccccc23)c2ccccc12
inactive: [10] 95 % of control | [11] 103 % of control | [14] 110 % of control

CCOC(=O)c1cccc(OP(=O)(N(C)C)N(C)C)c1
inactive: [9] 108 % of control | [10] 116 % of control

CCOC(=O)CCC1(CCC(=O)OCC)OCCO1
inactive: [10] 91 % of control | dose: 100.0 mg/kg/injection, schedule: Q04DX003 (ip), vehicle: saline 95 % of control | [11] 95 % of control | dose: 200.0 mg/kg/injection, schedule: Q04DX003 (ip), vehicle: saline 109 % of control | [14] 108 % of control | dose: 400.0 mg/kg/injection, schedule: Q04DX003 (ip), vehicle: saline 109 % of control

O=[N+]([O-])c1ccc(S(=O)(=O)OCc2ccccc2OS(=O)(=O)c2ccc([N+](=O)[O-])cc2)cc1
inactive: [13] 109 % of control | [1] 110 % of control | [9] 114 % of control | [2] 100 % of control | [10] 114 % of control | [3] 95 % of control

O=C(/C=C\c1ccc2c(c1)OCO2)/C=C/c1ccc2c(c1)OCO2
inactive: [15] 104 % of control | dose: 100.0 mg/kg/injection, schedule: Q04DX003 (ip), vehicle: saline sonified 100 % of control | [16] 100 % of control | dose: 200.0 mg/kg/injection, schedule: Q04DX003 (ip), vehicle: saline sonified 109 % of control | [5] 95 % of control | dose: 400.0 mg/kg/injection, schedule: Q04DX003 (ip), vehicle: saline sonified 100 % of control

COc1ccc(/C=C(C(=O)O)/C(=C/c2ccc(OC)c(OC)c2)C(=O)O)cc1OC
inactive: [15] 100 % of control | [16] 109 % of control | [4] 95 % of control | [5] 95 % of control | [6] 112 % of control

S=C(S)NNc1ccccc1
inactive: [13] 86 % of control | [8] 110 % of control | [9] 100 % of control | [12] 105 % of control | [10] 100 % of control | dose: 100.0 mg/kg/injection, schedule: Q04DX003 (ip), vehicle: saline with Tween-80 100 % of control
